Measured values taken from patent publication US20250170112A1, “ADENOSINE LIGANDS FOR THE TREATMENT OF NEUROLOGICAL DISORDERS” (Lucy Therapeutics, Inc., priority 2022, published 2025).

What was measured:
[1] = molecular target: T1, human Adenosine A1 receptor (Homo sapiens, UniProt P30542); assay: GTPγS scintillation proximity assay, agonist testing; assay type: biochemical; conditions: agonist activity; membrane extracts of CHO-K1 cells expressing recombinant human A1; read-out: A1AR EC50
T1 construct: host or cells: CHO-K1
T1 sequence (P30542 1-326): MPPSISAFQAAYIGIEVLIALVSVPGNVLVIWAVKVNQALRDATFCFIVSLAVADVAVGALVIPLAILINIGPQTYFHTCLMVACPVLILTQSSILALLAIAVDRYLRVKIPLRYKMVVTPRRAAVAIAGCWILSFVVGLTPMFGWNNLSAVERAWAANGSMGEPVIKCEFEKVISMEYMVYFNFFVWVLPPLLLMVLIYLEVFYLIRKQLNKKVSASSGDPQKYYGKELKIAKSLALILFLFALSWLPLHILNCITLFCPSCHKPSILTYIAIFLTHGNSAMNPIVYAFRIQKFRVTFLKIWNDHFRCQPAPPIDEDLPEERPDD
Method in brief: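 Agonist-stimulated [35S]GTPγS binding to membranes of CHO-K1 cells expressing recombinant human A1 receptor, in 20 mM HEPES pH 7.4, 100 mM NaCl, 10 μg/mL saponin, with receptor-optimized MgCl2 and GDP. GTPγ[35S] 0.1 nM final with WGA SPA beads; 1 h at room temperature, then scintillation counting.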

[2] = molecular target: T2, human A2B (Homo sapiens, UniProt P29275); assay: cAMP HTRF assay for Gs coupled receptor, agonist test; assay type: cell-based; conditions: agonist activity; HEK293 cells expressing recombinant human A2B; read-out: A2BAR EC50
T2 construct: expressed in transfected cells; host or cells: HEK293
T2 sequence (P29275 1-332): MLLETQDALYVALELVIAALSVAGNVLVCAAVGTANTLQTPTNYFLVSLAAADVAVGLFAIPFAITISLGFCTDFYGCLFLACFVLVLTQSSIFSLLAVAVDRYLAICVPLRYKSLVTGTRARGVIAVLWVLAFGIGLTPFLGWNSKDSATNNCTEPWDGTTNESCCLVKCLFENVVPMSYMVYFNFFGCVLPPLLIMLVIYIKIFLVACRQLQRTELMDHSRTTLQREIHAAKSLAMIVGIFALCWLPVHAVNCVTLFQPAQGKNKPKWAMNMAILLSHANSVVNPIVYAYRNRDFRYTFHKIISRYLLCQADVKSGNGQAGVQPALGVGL
Method in brief: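 Recombinant cells were incubated 30 min at room temperature with increasing agonist concentrations. Lysis buffer with cAMP-d2 and anti-cAMP cryptate was added, with 1 h at room temperature before the HTRF fluorescence ratio was read. Reference compounds were run in parallel.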

Structure (SMILES)	EC50 [1]	EC50 [2]
COCCOc1ccc(-c2c(C#N)c(SCc3cccnc3)nc(N(C)C)c2C#N)cc1 [Compound 286]	> 10000 nM	> 10000 nM
N#Cc1c(SCc2cccnn2)nc(N2CC(F)C2)c(C#N)c1-c1ccc(OCCOC(F)F)cc1 [Compound 241]	73.2 nM	> 10000 nM
N#Cc1c(N)nc(SCC2CCCOC2)c(C#N)c1-c1ccc(OC2COC2)cc1 (centres unmarked) [Compound 9]	884 nM	2490 nM
CNc1nc(OCC2COC2)c(C#N)c(-c2ccc(OC3COC3)cc2)c1C#N [Compound 288]	308 nM	> 10000 nM
N#Cc1c(N)nc(OCC2CCOCC2)c(C#N)c1-c1ccc(OC2COC2)cc1 [Compound 298]	229 nM	> 10000 nM
N#Cc1cnc(SCC2COC2)c(C#N)c1-c1ccc(OCCO)cc1 [Compound 61, 4-[4-(2-hydroxyethoxy)phenyl]-2-(oxetan-3-ylmethythio)pyridine-3,5-dicarbonitrile]	620 nM	> 10000 nM
N#Cc1c(N)nc(SCc2nc3cc(Cl)ccc3s2)c(C#N)c1-c1ccc(OCCO)cc1 [Compound 208]	500 nM	98 nM
N#Cc1c(N)nc(SCc2ccncc2)c(C#N)c1-c1ccc(OCCO)cc1 [Compound 174]	8.1 nM	0.5 nM
COCCOc1ccc(-c2c(C#N)c(N)nc(SCc3ccncc3)c2C#N)cc1 [Compound 197]	52 nM	> 10000 nM
CNc1nc(SCc2cccnc2)c(C#N)c(-c2ccc(OCCOC)cc2)c1C#N [Compound 284]	> 10000 nM	> 10000 nM
CCOCCSc1nc(N)c(C#N)c(-c2ccc(OC3COC3)cc2)c1C#N [Compound 17]	99.1 nM	5950 nM
CC(O)CSc1nc(N2CCCC2)c(C#N)c(-c2ccc(OCCO)cc2)c1C#N (centres unmarked) [Compound 106]	502 nM	> 10000 nM
N#Cc1c(N)nc(SCCC(F)(F)F)c(C#N)c1-c1ccc(O[C@H]2C[C@H](O)C2)cc1 [Compound 328]	> 10000 nM	> 10000 nM
N#Cc1c(N)nc(SCCC(F)(F)F)c(C#N)c1-c1ccc(OC2CCOC2)cc1 (centres unmarked) [Compound 220]	> 10000 nM	> 10000 nM
N#Cc1c(N)nc(SCC2COCCO2)c(C#N)c1-c1ccc(OC2COC2)cc1 (centres unmarked) [Compound 301]	228 nM	> 10000 nM
CN(C)c1nc(SCC2COC2)c(C#N)c(-c2ccc(OC3COC3)cc2)c1C#N [Compound 318]	32.1 nM	> 10000 nM
COCCOc1ccc(-c2c(C#N)c(N)nc(SCc3cccc(OC)c3)c2C#N)cc1 [Compound 37]	139 nM	> 10000 nM

Structure (SMILES)	EC50 [1]	EC50 [2]
COCCOc1ccc(-c2c(C#N)c(N)nc(SCC(C)O)c2C#N)cc1 (centres unmarked) [Compound 127]	91 nM	> 10000 nM
COCCOc1ccc(-c2c(C#N)c(SCc3cnccn3)nc(N3CC(F)C3)c2C#N)cc1 [Compound 252]	> 10000 nM	> 10000 nM
N#Cc1c(N)nc(SCc2cnccn2)c(C#N)c1-c1ccc(OCCO)cc1 [Compound 172]	12 nM	3.9 nM
CNc1nc(SCc2cccnc2)c(C#N)c(-c2ccc(OCCOC(F)F)cc2)c1C#N [Compound 258]	> 10000 nM	> 10000 nM
Cc1ccc(CSc2nc(N3CCC3)c(C#N)c(-c3ccc(OCCO)cc3)c2C#N)c(C)n1 [Compound 74]	> 10000 nM	8100 nM
N#Cc1c(N)nc(SCc2nccc3[nH]ccc23)c(C#N)c1-c1ccc(OCCO)cc1 [Compound 229]	> 10000 nM	11 nM
N#Cc1c(N)nc(SCC2COC2)c(C#N)c1-c1ccc(OC(F)(F)COC(F)F)cc1 [Compound 289, 2-Amino-4-(4-(2-(difluoromethoxy)-1,1-difluoroethoxy)phenyl)-6-((oxetan-3-ylmethyl)thio)pyridine-3,5-dicarbonitrile]	> 10000 nM	> 10000 nM
COCCOc1ccc(-c2c(C#N)c(N)nc(OCc3cccnc3)c2C#N)cc1 [Compound 193]	49 nM	> 10000 nM
COCCOc1ccc(-c2c(C#N)c(SCC3COC3)nc(N3CC(F)C3)c2C#N)cc1 [Compound 267]	77 nM	> 10000 nM
COCC(F)(F)Oc1ccc(-c2c(C#N)c(N)nc(SCC3COC3)c2C#N)cc1 [Compound 310]	> 10000 nM	> 10000 nM
CCOCCSc1nc(N)c(C#N)c(-c2ccc(OCCO)cc2)c1C#N [Compound 27]	31.4 nM	65.9 nM
N#Cc1c(N)nc(SC[C@@H]2CCOC2)c(C#N)c1-c1ccc(OC2COC2)cc1 [Compound 228]	1460 nM	7550 nM
N#Cc1c(N)nc(SCc2cncc3[nH]ccc23)c(C#N)c1-c1ccc(OCCO)cc1 [Compound 2]	> 10000 nM	0.28 nM
COCCOc1ccc(-c2c(C#N)c(SCc3ncccn3)nc(N3CC(F)C3)c2C#N)cc1 [Compound 251]	> 10000 nM	> 10000 nM
N#Cc1c(SCC2COC2)nc(N2CC(F)C2)c(C#N)c1-c1ccc(OCCO)cc1 [Compound 275]	55.9 nM	> 10000 nM
N#Cc1c(SCc2cccnn2)nc(C2CC2)c(C#N)c1-c1ccc(OCCOC2COC2)cc1 [Compound 242]	905 nM	749 nM
COCCOc1ccc(-c2c(C#N)c(SCCO)nc(N3CCCC3)c2C#N)cc1 [Compound 117]	997 nM	> 10000 nM
